{"source": "paper PMC8750527", "about": "(Cancers, 2021)", "key": {"[1]": {"test_system": "MB cells (DAOY, HD-MB03, D283, D458, CHLA-01-MED spheroids)", "assay": "Spheroid assay, five MB cell lines", "format": "cell-based, human", "details": "5 µM, continuous treatment", "description": "Two thousand cells were seeded in ultralow-adhesion 96-well plates (Corning Inc., Corning, NY, USA). […] Pictures were taken with an AMG Evos microscope 40× objective (Thermo Fisher Scientific Inc, Waltham, MA, USA) and the spheroid areas were measured using the ImageJ software (NIH, Bethesda, MD, USA)."}, "C8-D1A astrocytes": {"test_system": "C8-D1A astrocytes", "assay": "Cell viability, propidium iodine incorporation, C8-D1A", "format": "cell-based, murine", "details": "48 h; axitinib, cabozantinib, sunitinib 5 µM, etoposide 1 µM", "description": "(§1) Cell viability assays were conducted using a propidium iodine incorporation technique with an ADAM-sHIT automated cell counter (NanoEnTek, Gyeonggi-do, Korea) according to the manufacturer’s protocol."}, "DAOY": {"test_system": "DAOY", "assay": "MTT assay, 48 h exposure, DAOY MB cells", "format": "cell-based, human", "details": "Homo sapiens, Daoy; Table 1; MTT, 48 h exposure; mean ± SEM", "description": "HDF (3000 cells), C8-D1A (5000 cells), D458 (5000 cells), DAOY (2000 cells), HD-MB03 (10,000 cells) and CHLA-01-Med (10,000 cells) were seeded at an approximate confluency of 50% in 96-well plates (Corning Inc., Corning, NY, USA) in 100 µL medium per well. A range from 50 nM to 150 µM of every drug was tested. The effects of the antiangiogenic compounds were measured using a 3-[4,5-dimethylthiazol-2yl]-diphenyltetrazolium bromide (MTT) colorimetric assay (Sigma, Lyon, France) according to the manufacturer’s instructions. When applicable, IC50 was calculated using the nonlinear regression method of the Prism 5 software (Graphpad Software Inc., San Diego, CA, USA). […] An MTT assay was conducted as described above to assess the fitness of the cells."}, "[2]": {"test_system": "normal cells (C8-D1A, HDF)", "assay": "Proliferation index assay, normal cells", "details": "120 h; axitinib 5 µM, etoposide 1 µM"}, "subcutaneous DAOY tumors": {"test_system": "subcutaneous DAOY tumors", "details": "oral, thrice a week; axitinib 50 mg/kg, etoposide 30 mg/kg, combination 25 + 15 mg/kg", "description": "For subcutaneous xenograft experiments, tumor cells expressing the luciferase (350,000 HDMB-Luc cells and 1.10^6 DAOY-Luc cells) were resuspended in 200 µL of 5 µg/mL Matrigel (Corning Inc., Corning, NY, USA) and injected subcutaneously in the flank of 5-week-old Rj:NMRI-Foxn1 nude (nu/nu) female mice (Janvier Labs, Le Genest-Saint-Isle, France). Saline solution (NaCl 0.9M; 100 µL) containing 30 mg/mL D-Luciferin (Perkin Elmer, Wellesley, MA, USA) was injected intraperitoneally in the animals and the bioluminescence was quantified using an In Vivo Imaging System (Perkin Elmer, Wellesley, MA, USA) according to the manufacturer’s instructions. Tumor volume (V = L × l2 × 0.52) was determined with a caliper and the endpoint was determined as a tumor volume of 1000 mm^3. […] The mice were sacrificed when the tumor reached 1000 mm^3. […]\n(§2) The growth rate of the tumors generated with HD-MB03 cells was determined using a linear regression method applied to the growth curves between the sizes of 400 mm^3 up to the endpoint using Prism 5 (Graphpad Software Inc., San Diego, CA, USA).\nTumor samples were recovered from the animals and embedded in the OCT compound according to the manufacturer’s protocol (Thermo Fisher Scientific Inc., Waltham, MA, USA). […] All the images were then quantified with the CellProfiler 3.0 software."}, "[3]": {"test_system": "barrier formed by BEC (hCMEC/D3)", "assay": "In vitro BBB permeability assay (FITC-Dextran), BEC", "format": "cell-based, human", "details": "3-day treatment, nontoxic doses", "description": "(§3) This assay was conducted as previously described. […] Permeability was measured by the passage of 40 kDa FITC-Dextran through the inserts. Fluorescence intensity measures were normalized to the DMSO control."}, "HDF": {"test_system": "HDF", "assay": "Cell viability, propidium iodine incorporation, HDF", "format": "cell-based, human", "details": "48 h; axitinib, cabozantinib 5 µM, etoposide 1 µM", "description": "as §1"}, "[4]": {"test_system": "children presenting with refractory or recurrent tumors", "details": "phase I study ref 20; cited from earlier work"}, "MB cells": {"test_system": "MB cells", "assay": "Cell viability, propidium iodine incorporation, MB cells", "format": "cell-based, human", "details": "48 h, 5 µM", "description": "as §1"}, "barrier formed by HUVEC": {"test_system": "barrier formed by HUVEC", "assay": "In vitro endothelium permeability assay (FITC-Dextran), HUVEC", "format": "cell-based, human", "details": "3-day treatment, nontoxic doses", "description": "as §3"}, "[5]": {"test_system": "subcutaneous HD-MB03 tumors", "assay": "Subcutaneous HD-MB03 xenografts", "format": "in vivo, mouse", "details": "oral, thrice a week", "description": "For subcutaneous xenograft experiments, tumor cells expressing the luciferase (350,000 HDMB-Luc cells and 1.10^6 DAOY-Luc cells) were resuspended in 200 µL of 5 µg/mL Matrigel (Corning Inc., Corning, NY, USA) and injected subcutaneously in the flank of 5-week-old Rj:NMRI-Foxn1 nude (nu/nu) female mice (Janvier Labs, Le Genest-Saint-Isle, France). Saline solution (NaCl 0.9M; 100 µL) containing 30 mg/mL D-Luciferin (Perkin Elmer, Wellesley, MA, USA) was injected intraperitoneally in the animals and the bioluminescence was quantified using an In Vivo Imaging System (Perkin Elmer, Wellesley, MA, USA) according to the manufacturer’s instructions. Tumor volume (V = L × l2 × 0.52) was determined with a caliper and the endpoint was determined as a tumor volume of 1000 mm^3. […] The mice were sacrificed when the tumor reached 1000 mm^3. […] No statistical methods were used to predetermine the sample size of the experiments. Animal facility availability and cost were used to determine sample sizes. Two independent cohorts of five mice per group were used for the tumor growth experiment with HD-MB03 cells and one cohort of five mice per group was used for the experiment with DAOY cells. Animal experiments were carried out in strict accordance with the recommendations in the Guide for the Care and Use of Laboratory Animals. Our experiments were approved by Direction de l’Action Sanitaire et Sociale of the Principality of Monaco and the ethics committee of Centre Scientifique de Monaco.\nas §2\nTumor samples were recovered from the animals and embedded in the OCT compound according to the manufacturer’s protocol (Thermo Fisher Scientific Inc., Waltham, MA, USA). After that, 5 µm thin sections were prepared with a cryostat (Leica Microsystems, Wetzlar, Germany). Incubation was carried out with the following antibodies diluted at 1:1000 in TBS supplemented with 1% horse serum and 1% BSA for 20 min at room temperature: anti-Ki67 (cat. number ab16667, Abcam, Cambridge, UK), anti-CD31 (cat. number 550274, BD Biosciences, Frankton Lake, NJ, USA) or anti-αSMA (cat. number A2547, Merck Millipore, Burlington, MA, USA). The preparations were then washed with TBS–0.025% Triton, incubated with anti-rabbit Alexa488 and anti-mouse Alex-555-coupled secondary antibodies (Cell Signaling Technology, Danvers, MA, USA), washed with TBS–0.025% Triton, and the nuclei were counterstained with Hoechst33342 (Thermo Fisher Scientific, Waltham, MA, USA). Fluorescence images of the cells were taken with a DMI400 inverted microscope equipped with a 40× objective (Leica Microsystemes, Nanterre, France) and a Zyla 5.5 camera (Andor Technologies, Belfast, UK) powered by the Micromanager software. At least one cross-section of nonoverlapping images of each tumor was acquired. All the images were then quantified with the CellProfiler 3.0 software."}, "C8-D1A": {"test_system": "C8-D1A", "assay": "Cumulative population doubling (CPD), C8-D1A", "format": "cell-based, murine", "description": "Cumulative population doubling (CPD) was assessed as previously described. Briefly, depending on the cell line, a variable number of cells corresponding to about 30% confluency were seeded in triplicate in 60 mm diameter Petri dishes. […] The cells were harvested when the confluency reached about 90%, counted and plated again at a dilution of 1/20. CPD was calculated as previously described."}, "[6]": {"details": "axitinib 50 mg/kg, etoposide 30 mg/kg, combination 25 + 15 mg/kg"}}}
{"smiles": "CNC(=O)c1ccccc1Sc1ccc2c(/C=C/c3ccccn3)n[nH]c2c1", "note": "[Axitinib, axitinib]", "values": [{"measurement": "3D growth of MB cell spheroids", "setting": "[1]", "result": "abolished 3D growth"}, {"measurement": "viability of C8-D1A normal cells", "setting": "C8-D1A astrocytes", "result": "no effect on the viability"}, {"measurement": "IC50", "setting": "DAOY", "result": "2.3 ± 1.5", "unit": "µM"}, {"measurement": "proliferation of normal cells", "setting": "[2]", "result": "impaired in these conditions, although to a lower extent"}, {"measurement": "tumor growth (lognormal mathematical modelling)", "setting": "subcutaneous DAOY tumors", "result": "did not impair tumor growth"}, {"measurement": "permeability of the barrier formed by BEC", "setting": "[3]", "result": "permeabilized the barrier"}, {"measurement": "viability of HDF normal cells", "setting": "HDF", "result": "no effect on the viability"}, {"measurement": "maximum tolerated and recommended dose in children", "setting": "[4]", "result": 2.4, "unit": "mg/m^2"}, {"measurement": "viability of MB cells", "setting": "MB cells", "result": "decreased the viability of most MB cells"}, {"measurement": "permeability of the barrier formed by HUVEC", "setting": "barrier formed by HUVEC", "result": "permeabilized the barrier"}, {"measurement": "number of endothelial cells (CD31-positive) and/or pericytes/cancer-associated fibroblasts (αSMA-positive)", "setting": "[5]", "result": "did not impact"}, {"measurement": "surface of necrotic areas", "setting": "[5]", "result": "increased the surface of necrotic areas"}, {"measurement": "tumor growth rates (linear regression, growth phase)", "setting": "[5]", "result": "reduced"}, {"measurement": "median time to reach the endpoint volume (1000 mm^3)", "setting": "[5]; [6]", "result": 18, "unit": "days"}, {"measurement": "range of time to reach the endpoint volume (1000 mm^3)", "setting": "[5]; [6]", "result": "13 to 63", "unit": "days"}, {"measurement": "long-term proliferation (CPD) of C8-D1A cells", "setting": "C8-D1A; continuous treatment, 5 µM axitinib, compared to etoposide 1 µM", "result": "milder effect"}, {"measurement": "proliferation (CPD) of C8-D1A normal cells after removal of the drug", "setting": "C8-D1A; transient treatment for 48 h, 5 µM", "result": "able to proliferate again"}]}
